# According to article PMC12196235, “Enhancing the Pharmacological Properties of Triterpenes Through Acetylation: An Anticancer and Antioxidant Perspective” (Molecules, 2025):
# Values joined by “and” are separate entries in the source; they are usually repeats but may differ in a detail not shown here. Equal entries are not always repeated. Where two headings read alike, the source gives them in different places.
# Experiments:
# [1] = test system: B16-F10 (murine melanoma); conditions: cited from earlier work
# [2] = test system: HSV-1/106 (Herpes simplex virus type 1 ACV-resistant strain); conditions: ref 15; read-out: antiviral EC50 (HSV-1/106); cited from earlier work
# RAW 264.7 = conditions: ref 106; cited from earlier work
# Salmonella typhi = conditions: ref 16; cited from earlier work
# [3] = test system: HSV-1/Blue (Herpes simplex virus type 1 ACV-resistant strain); conditions: ref 15; read-out: antiviral EC50 (HSV-1/Blue); cited from earlier work
# [4] = test system: HeLa, KB, MCF-7, A-549, PC-3 and SKOV-3; assay: MTT assay, summary over the cancer cell lines; assay type: cell-based, human; conditions: for cytotoxic activity class: classification by IC50 (good ≤ 10 μM, moderate 10–30 μM, ref 83)
# Description: (§1) All the cell lines and mediums were obtained from the American Type Culture Collection (ATCC) supplied by LGC-Standards (Lomianki, Poland). Human cancer cell lines were cultured as follows: HeLa (human cervix carcinoma) and KB (human oral squamous carcinoma) lines were cultured in DMEM (Dulbecco’s Modified Eagle’s Medium); MCF-7 (human breast carcinoma) and A-549 (human lung carcinoma) were cultured in RPMI 1640 medium; PC-3 (human prostate carcinoma) was cultured in F-12K medium; SKOV-3 (human ovarian cystadenocarcinoma) was cultured in McCoy’s modified medium; HDF (human normal dermal fibroblasts) was cultured in Fibroblast Basal Medium. Each medium was supplemented with 10% fetal bovine serum, 1% L- glutamine and 1% penicillin/streptomycin solution. The cell lines were kept in an incubator at 37 °C.
# (§2) All the tested cell lines (HeLa, KB, MCF-7, A-549, PC-3, SKOV-3 and HDF) were subjected to MTT assay. In short, this assay is based on the reaction between mitochondria enzymes (dehydrogenases) of tested cell lines and 3-(4,5-dimethylthiazol-2-yl)-2,5-diphenyltetrazolium bromide (MTT). The final product of this reaction gives violet formazan crystals. The number of live cells is proportional to the amount of formazan and is represented by the violet dye reagent. The details of the experiments are given in [19].
# [5] = test system: KB (human oral squamous carcinoma); conditions: ref 104; cited from earlier work
# [6] = test system: A-549 (human lung carcinoma); conditions: cited from earlier work
# [7] = test system: SKOV-3 (human ovarian carcinoma); conditions: MTT assay, data published earlier, read-out: IC50 (±SD), SKOV-3; cited from earlier work
# [8] = test system: Hep-G2 (human hepatocellular carcinoma); conditions: cited from earlier work
# [9] = test system: HSV-1/153 (Herpes simplex virus type 1 ACV-resistant strain); conditions: ref 15; read-out: antiviral EC50 (HSV-1/153); cited from earlier work
# [10] = test system: HT-29 (human colorectal adenocarcinoma); conditions: cited from earlier work
# [11] = test system: KB-VIN (multidrug resistant human epidermoid carcinoma); conditions: ref 104; cited from earlier work
# Staphylococcus aureus = conditions: ref 16; cited from earlier work
# [12] = test system: HDF (human dermal fibroblasts); conditions: MTT assay, normal dermal fibroblasts; data published earlier; read-out: IC50 (±SD), HDF; cited from earlier work
# [13] = test system: HCT-116 (human colorectal carcinoma); conditions: cited from earlier work
# Escherichia coli = conditions: ref 16; cited from earlier work
# CUPRAC antioxidant assay = conditions: calculated from Trolox standard curve
# Description: (§3) The results are presented as % inhibition of the copper(II) ions and Trolox equivalent calculated from the standard curve (Figure 9) and as % inhibition of the DPPH radical and Trolox equivalent, calculated from the standard curve (Figure 10).
# (§4) The CUPRAC reagent (7.5 mM ethanolic 96% neocuproine solution, 10 mM CuCl2 × H2O solution and an ammonium acetate buffer of pH 7.0) and DPPH reagent (2,2-diphenyl-1-picrylhydrazyl 0.2 mM solution) were applied.
# (§5) The CUPRAC method measures the reducing power of a sample by quantifying its ability to convert the Cu-neocuproine reagent complex to the Cu(I) form. In contrast, the DPPH assay relies on the ability of an antioxidant to donate a hydrogen atom or an electron to the stable DPPH radical, resulting in its reduction and subsequent color change. The results are presented as % inhibition of the copper(II) ions and Trolox equivalent calculated from the standard curve (Figure 9) and as % inhibition of the DPPH radical and Trolox equivalent, calculated from the standard curve (Figure 10). The spectroscopic detection in CUPRAC and DPPH assays was conducted with Synergy H1 Multi-Mode Microplate Reader (BioTek Instruments, Inc., Winooski, VT, USA). The details of the experiments are given in [102].
# [14] = test system: J774A.1 (macrophage-like cell line); conditions: ref 106; cited from earlier work
# DPPH antioxidant assay = conditions: calculated from Trolox standard curve
# Description: as §3, §4, §5
# [15] = test system: SKOV-3 (human ovarian carcinoma); assay: MTT assay, SKOV-3; assay type: cell-based; conditions: for IC50: Homo sapiens, SK-OV-3, MTT assay, SKOV-3, read-out: IC50 (±SD), SKOV-3; for Selectivity index (SI), SKOV-3: IC50 HDF / IC50 SKOV-3
# Description: as §1, §2
# [16] = test system: SMMC-7721 (human hepatocarcinoma); set-up: method as in PMID 35897914; conditions: ref 27; read-out: anticancer IC50 (SMMC-7721); cited from earlier work
# [17] = test system: MCF-7 (human breast carcinoma); assay: MTT assay, MCF-7; assay type: cell-based; conditions: for IC50: Homo sapiens, MCF7, MTT assay, MCF-7, read-out: IC50 (±SD), MCF-7; for Selectivity index (SI), MCF-7: IC50 HDF / IC50 MCF-7
# Description: as §1, §2
# [18] = test system: HDF (human dermal fibroblasts); assay: MTT assay, normal HDF; assay type: cell-based; conditions: Homo sapiens, Fibroblast, read-out: IC50 (±SD), HDF
# Description: as §1, §2
# [19] = test system: KB (human oral squamous carcinoma); assay: MTT assay, KB; assay type: cell-based; conditions: for IC50: Homo sapiens, MTT assay, KB; for Selectivity index (SI), KB: IC50 HDF / IC50 KB
# Description: as §1, §2
# [20] = test system: CCRF-CEM, CEM (human T lymphoblastic leukemia); conditions: ref 26; read-out: anticancer IC50 (CCRF-CEM, CEM); cited from earlier work
# [21] = test system: A-549 (human lung carcinoma); assay: MTT assay, A-549; assay type: cell-based; conditions: for IC50: Homo sapiens, A549, MTT assay, A-549, read-out: IC50 (±SD), A-549; for Selectivity index (SI), A-549: IC50 HDF / IC50 A-549
# Description: as §1, §2
# [22] = test system: PC-3 (human prostate carcinoma); assay: MTT assay, PC-3; assay type: cell-based; conditions: for IC50: Homo sapiens, MTT assay, PC-3, read-out: IC50 (±SD), PC-3; for Selectivity index (SI), PC-3: IC50 HDF / IC50 PC-3
# Description: as §1, §2
# [23] = test system: HeLa (human cervical epithelioid carcinoma); assay: MTT assay, HeLa; assay type: cell-based; conditions: for IC50: Homo sapiens, MTT assay, HeLa, read-out: IC50 (±SD), HeLa
# Description: as §1, §2
# HCV (Hepatitis C virus) = test system: HCV (Hepatitis C virus); set-up: method as in PMID 26102077; conditions: ref 32; read-out: antiviral EC50 (HCV); cited from earlier work
# [24] = test system: SW-480 (human colon adenocarcinoma); set-up: method as in PMID 28981110; conditions: ref 38; read-out: anticancer IC50 (SW-480); cited from earlier work
# [25] = test system: A-2780 (human ovarian carcinoma); set-up: method as in PMID 31277238; conditions: ref 40; read-out: anticancer IC50 (A-2780); cited from earlier work
# [26] = test system: NOZ (human gall bladder carcinoma); set-up: method as in PMID 31915810; conditions: ref 39; read-out: anticancer IC50 (NOZ); cited from earlier work
compound,measurement,setting,value
"CC1(C)CC[C@]2(C(=O)O)CC[C@]3(C)C(=CC[C@@H]4[C@@]5(C)CC[C@H](O)C(C)(C)[C@@H]5CC[C@]43C)[C@@H]2C1 [1a, oleanolic acid]",IC50,[1]; ref 105,106 µM
same,IC50,[1]; ref 107,106 µM
same,EC50,[2],12.9 µM
same,IC50,RAW 264.7,41.7 µM
same,antibacterial MBC (Salmonella typhi),Salmonella typhi,300 µg/mL
same,antibacterial MIC (S. typhi),Salmonella typhi,65 µg/mL
same,EC50,[3],13.1 µM
same,cytotoxic activity class,[4],high or moderately high activity
same,IC50,[5],> 10 µM
same,IC50,"[6]; ref 104, read-out: IC50 (A-549)",6.4 µM
same,IC50,[7],18.8 µM
same,IC50,"[8]; ref 18, 19, read-out: anticancer IC50 (Hep-G2)",16.2 µM
same,IC50,"[8]; ref 105, read-out: IC50 (Hep-G2)",212 µM
same,EC50,[9],13.1 µM
same,IC50,"[10]; ref 105, read-out: IC50 (HT-29)",430 µM
same,IC50,[11],> 10 µM
same,antibacterial MBC (Staphylococcus aureus),Staphylococcus aureus,700 µg/mL
same,antibacterial MIC (S. aureus),Staphylococcus aureus,95 µg/mL
same,IC50,[12],24.9 µM
same,anticancer IC50 (HCT-116),[13]; ref 20,anticancer: IC50 = 40 µg × mL^−1 (HCT-116)
same,antibacterial MBC (Escherichia coli),Escherichia coli,900 µg/mL
same,antibacterial MIC (E. coli),Escherichia coli,95 µg/mL
same,"Trolox Equivalent, CUPRAC Assay",CUPRAC antioxidant assay,0.1031 ± 0.00684 mg/mL
same,IC50,[14],35.2 µM
same,"Trolox Equivalent, DPPH Assay",DPPH antioxidant assay,0.02633 ± 0.00109 mg/mL
"CC1(C)CC[C@]2(CO)CC[C@]3(C)C(=CC[C@@H]4[C@@]5(C)CC[C@H](O)C(C)(C)[C@@H]5CC[C@]43C)[C@@H]2C1 [2a, erythrodiol]",IC50,[15],18.3 µM
same,"Selectivity index (SI), SKOV-3",[15],1.53
same,IC50,[16],65 µM
same,times less active than oleanolic acid 1a,"[4]; HeLa, KB, MCF-7 and A-459 cell lines",4.4–7.2 times
same,IC50,[17],65.5 µM
same,"Selectivity index (SI), MCF-7",[17],0.43
same,IC50,"[6]; cell line printed as A-459, read-out: anticancer IC50 (A-459)",63 µM
same,IC50,"[8]; ref 24, read-out: anticancer IC50 (Hep-G2)",27.3 µM
same,IC50,"[8]; ref 27, read-out: anticancer IC50 (Hep-G2)",87.7 µM
same,IC50,[18],28 µM
same,EC50,"[10]; ref 25, read-out: anticancer EC50 (HT-29)",48.8 µM
same,"Trolox Equivalent, CUPRAC Assay",CUPRAC antioxidant assay,0.09414 mg/mL and 0.09414 ± 0.0095 mg/mL
same,IC50,[19],66 µM
same,"Selectivity index (SI), KB",[19],0.42
same,IC50,[20],250 µM
same,IC50,[21],63.7 µM
same,"Selectivity index (SI), A-549",[21],0.44
same,IC50,[22],21.1 µM
same,"Selectivity index (SI), PC-3",[22],1.32
same,IC50,[23],54.3 µM
same,"Trolox Equivalent, DPPH Assay",DPPH antioxidant assay,0.02092 mg/mL and 0.02092 ± 0.000866 mg/mL
"C=C(C)[C@@H]1CC[C@]2(C(=O)O)CC[C@]3(C)[C@H](CC[C@@H]4[C@@]5(C)CC[C@H](O)C(C)(C)[C@@H]5CC[C@]43C)[C@@H]12 [4a, betulinic acid]",IC50,[15],9.52 µM
same,"Selectivity index (SI), SKOV-3",[15],2.09
same,EC50,HCV (Hepatitis C virus),11.2 µM
same,IC50,[24],58 µM
same,cytotoxic activity class,[4],high or moderately high activity
same,IC50,[17],27.9 µM
same,"Selectivity index (SI), MCF-7",[17],0.71
same,IC50,[18],19.9 µM
same,IC50,[25],44.5 µM
same,IC50,[26],30 µM
same,IC50,"[10]; ref 38, read-out: anticancer IC50 (HT-29)",125 µM
same,IC50,"[13]; ref 38, read-out: anticancer IC50 (HCT-116)",178 µM
same,"Trolox Equivalent, CUPRAC Assay",CUPRAC antioxidant assay,0.07632 ± 0.00727 mg/mL
same,IC50,[19],35.2 µM
same,"Selectivity index (SI), KB",[19],0.56
same,IC50,[20],30 µM
same,IC50,[21],26.2 µM
same,"Selectivity index (SI), A-549",[21],0.76
same,IC50,[22],10.6 µM
same,"Selectivity index (SI), PC-3",[22],1.88
same,IC50,[23],27.5 µM
same,"Selectivity index (SI), HeLa",[23]; IC50 HDF / IC50 HeLa,0.72
same,"Trolox Equivalent, DPPH Assay",DPPH antioxidant assay,0.01526 ± 0.000632 mg/mL
